In ChEMBL document CHEMBL1201862, “PubChem BioAssay data set” (2004):
Several values for one entry are separate records, joined by “and”; a condition that tells them apart may be missing. Equal values may be shown once.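 How tested: cells in 96-well plates exposed to compound for 48 hours at five concentrations. GI50 = concentration required for 50% inhibition of growth.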 Activity calls are given as the source filed them. No stated cut-off is given here; in the data, active = GI50 up to about 1.1 µM and inactive = higher.

Experiments:
Assay in all cases: growth of human tumour cells (NCI), 48 h
[1] = tested on: SK-MEL-28
[2] = tested on: SR
[3] = tested on: COLO 205
[4] = tested on: UACC-62
[5] = tested on: MDA-MB-435
[6] = tested on: SF-268
[7] = tested on: SK-OV-3
[8] = tested on: HOP-92
[9] = tested on: MCF7
[10] = tested on: SK-MEL-2
[11] = tested on: IGROV-1
[12] = tested on: HL-60
[13] = tested on: NCI/ADR-RES
[14] = tested on: T47D
[15] = tested on: SW-620
[16] = tested on: SK-MEL-5
[17] = tested on: MOLT-4
[18] = tested on: SNB-75
[19] = tested on: RXF 393
[20] = tested on: RPMI-8226
[21] = tested on: HOP-62
[22] = tested on: CCRF-CEM
[23] = tested on: NCI-H23
[24] = tested on: NCI-H460
[25] = tested on: CAKI-1
[26] = tested on: U-251
[27] = tested on: K562
[28] = tested on: OVCAR-5
[29] = tested on: Malme-3M
[30] = tested on: OVCAR-4
[31] = tested on: ACHN
[32] = tested on: 786-0
[33] = tested on: A549
[34] = tested on: M14
[35] = tested on: HCC 2998
[36] = tested on: EKVX
[37] = tested on: MDA-N
[38] = tested on: DU-145
[39] = tested on: OVCAR-8
[40] = tested on: KM12
[41] = tested on: OVCAR-3
[42] = tested on: NCI-H522
[43] = tested on: HT-29
[44] = tested on: HCT-15
[45] = tested on: UACC-257
[46] = tested on: LOX IMVI
[47] = tested on: SN12C
[48] = tested on: PC-3
[49] = tested on: UO-31
[50] = tested on: SNB-19
[51] = tested on: HCT-116
[52] = tested on: TK-10
[53] = tested on: SF-539
[54] = tested on: MDA-MB-231
[55] = tested on: SF-295
[56] = tested on: A498

Measured: GI50

C=CCNc1nc(C#N)c(N)s1
inactive: [1] > 10 µM | [2] > 10 µM | [3] > 10 µM | [4] > 10 µM | [5] > 10 µM | [6] > 10 µM | [7] > 10 µM | [8] > 10 µM | [9] > 10 µM | [10] > 10 µM | [11] > 10 µM | [12] > 10 µM | [13] > 10 µM | [14] > 10 µM | [15] > 10 µM | [16] > 10 µM | [17] > 10 µM | [18] > 10 µM | [19] > 10 µM | [20] > 10 µM | [21] > 10 µM | [22] > 10 µM | [23] > 10 µM | [24] > 10 µM | [25] > 10 µM | [26] > 10 µM | [27] > 10 µM | [28] > 10 µM | [29] > 10 µM | [30] > 10 µM | [31] > 10 µM | [32] > 10 µM | [33] > 10 µM | [34] > 10 µM

CCc1c(C)c(C#N)c(=S)n(C2OC(COC(C)=O)C(OC(C)=O)C(OC(C)=O)C2OC(C)=O)c1C (centres undefined)
active: [18] 0.0113 µM
inactive: [1] > 100 µM | [2] > 100 µM | [3] > 100 µM | [5] > 100 µM | [6] > 100 µM and 73.5 µM | [35] > 100 µM | [36] 87.1 µM | [9] > 100 µM | [10] 13 µM | [11] > 100 µM | [37] > 100 µM | [38] > 100 µM | [12] > 100 µM | [13] > 100 µM | [14] > 100 µM | [15] > 100 µM | [39] > 100 µM | [40] > 100 µM | [16] > 100 µM | [17] > 100 µM | [22] > 100 µM | [23] > 100 µM | [24] > 100 µM | [25] > 100 µM | [41] > 100 µM | [42] > 100 µM and 52.8 µM | [43] > 100 µM | [27] > 100 µM | [29] > 100 µM | [30] > 100 µM and 80.7 µM | [33] 92.9 µM | [45] > 100 µM | [46] > 100 µM | [47] > 100 µM | [34] 39.4 µM and 46.2 µM
> 100 µM: [44]

CCCC1(N2C(=O)c3ccc4c5c(ccc(c35)C2=O)N(C2(CCC)CCCCC2)C4=O)CCCCC1
inactive: [1] > 100 µM | [3] > 100 µM | [48] > 100 µM | [4] > 100 µM | [5] > 100 µM | [6] > 100 µM | [35] > 100 µM | [49] > 100 µM | [50] > 100 µM | [7] > 100 µM | [8] > 100 µM | [51] > 100 µM | [9] > 100 µM | [10] > 100 µM | [37] > 100 µM | [38] > 100 µM | [13] > 100 µM | [14] > 100 µM | [15] > 100 µM | [39] > 100 µM | [40] > 100 µM | [52] > 100 µM | [16] > 100 µM | [17] > 100 µM | [19] > 100 µM | [20] > 100 µM | [21] > 100 µM | [53] > 100 µM | [54] > 100 µM | [23] > 100 µM | [24] > 100 µM | [25] > 100 µM | [41] > 100 µM | [26] > 100 µM | [42] > 100 µM | [43] > 100 µM | [27] > 100 µM | [28] > 100 µM | [29] > 100 µM | [30] > 100 µM | [31] > 100 µM | [32] > 100 µM | [55] > 100 µM | [33] > 100 µM | [56] > 100 µM | [47] > 100 µM | [34] > 100 µM
> 100 µM: [44]
